We go through two substances from US5637690A, “Sulfate of n-acetylneuraminic acid homopolymer and processes for making and using the same” (Marukin Shoyu Co., Ltd., priority 1993, dated 1997).

For one data set, the system named is MT-4 cell. Kind of data set: Cytotoxicity on MT-4 cells (Pharmacological Tests 1, 2 and 3). Type of data set: cell-based. Details: key to Toxicity: --: no cytotoxicity or no anti-HIV activity; key to Cytotoxicity: --: no toxicity. As to conditions: for Cytotoxicity: Table 2; for Toxicity: Table 4. How it is done: (§1) A medium in which MT-4 cell [Miyoshi I. et al., Gann Monogr., 28, 219-228 (1982)] was included in a proportion of 2×10^5 cell/ml medium (RPMI-1640+10%FCS) was prepared. To each of 500 μl portion of the medium were added sulfated colominic acid obtained from examples 1 and 2 at a concentration shown in table 1. After two hours addition of the esters, HIV was infected to cells in each well in the proportion of 5×10^3 PFU/well. After 4 days from HIV infection, smear of MT-4 cell was prepared to detect HIV antigen positive cells by immunofluorescence (Harada S. et al., Science, 229, 563-566 (1985); Takeuchi Y., et al., Jpn. J. Cancer Res. (Gann), 78, 11-15 (1987)).
(§2) In tables 1 and 3, a sample having a concentration of sulfated colominic acid of zero was regarded as control. In table 2, "--" indicates no toxicity.
A cytotoxicity of sulfated colominic acid was assayed in the same manner as Pharmacological Test 1. Specifically, after MT-4 cell prepared at a concentration of 1×10^5 cell/ml was cultured for 4 days in the presence of a variety of concentrations of sulfated colominic acid, the number of cells was counted. Cytotoxicity was evaluated by calculating a cell survival ratio in each final concentration of sulfated colominic acid taking as 100% the cell survival ratio of control, in which final concentration of sulfated colominic acid is zero.
(§3) In order to determine the minimum number of monomer unit of N-acetylneuraminic acid homopolymer, sulfate esters of formula (I) in which n is 1-6 were produced. A cytotoxicity and an anti-HIV activity of each sulfate ester were determined in the same manner as pharmacological tests 1 and 2.

For another data set, the system named is HIV. Kind of data set: Anti-HIV activity: HIV antigen positive MT-4 cells by immunofluorescence (Pharmacological Tests 1 and 3). Type of data set: cell-based. How it is done:
as §1
An anti-HIV activity of colominic acid which is a starting material in place of sulfated colominic acid was determined in the same manner as above.
as §2, §3

One may read the IC50 as the midpoint of a concentration-inhibition curve.

As to colominic acid [reference compound], the Cytotoxicity entry with MT-4 cell (final concentration 1 μg/ml), with MT-4 cell (final concentration 3 μg/ml), in the data set with MT-4 cell (final concentration 10 μg/ml), in the data set on MT-4 cell (final concentration 30 μg/ml) and with MT-4 cell (final concentration 100 μg/ml) was “--” in each case. In addition, the “anti-HIV activity (in words)” value with HIV (Table 2, 1-100 μg/ml) was “does not have an anti-HIV activity”. The “Cell infection ratio” value is greater than 95% in the data set on HIV (Table 2, final concentration 1 μg/ml); greater than 95% in the data set on HIV (Table 2, final concentration 3 μg/ml); greater than 95% with HIV (Table 2, final concentration 10 μg/ml); greater than 95% in the data set with HIV (Table 2, final concentration 30 μg/ml); greater than 95% in the data set with HIV (Table 2, final concentration 100 μg/ml).
For the substance “sulfate ester of N-acetylneuraminic acid hexamer [DP-6-S]”, the Toxicity entry in the data set on MT-4 cell (final concentration 0.1 μg/ml), in the data set with MT-4 cell (final concentration 0.3 μg/ml), in the data set on MT-4 cell (final concentration 1 μg/ml), with MT-4 cell (final concentration 3 μg/ml), in the data set on MT-4 cell (final concentration 10 μg/ml) and in the data set with MT-4 cell (final concentration 30 μg/ml) was “--” throughout. Besides, the Toxicity entry in the data set on MT-4 cell (final concentration 100 μg/ml) is given as “--”. In the data set on HIV (Table 4, anti-HIV, MT-4 cells), the IC50 turned out to be 20 µg/mL. For the same substance, the Cell infection ratio is given as greater than 95% with HIV (Table 4, final concentration 0.1 μg/ml); greater than 95% in the data set with HIV (Table 4, final concentration 0.3 μg/ml); greater than 95% in the data set on HIV (Table 4, final concentration 1 μg/ml); greater than 95% with HIV (Table 4, final concentration 3 μg/ml); 80% in the data set with HIV (Table 4, final concentration 10 μg/ml); 30% in the data set with HIV (Table 4, final concentration 30 μg/ml). In addition, the Cell infection ratio in the data set on HIV (Table 4, final concentration 100 μg/ml) is given as less than 5%.
